Assay results as given in patent US20240082228A1, “SARS-COV-2 THERAPEUTICS” (priority 2021, published 2024).
Several values for one entry are separate records, joined by “and”; a condition that tells them apart may be missing. Equal values may be shown once. Read-outs that look alike come from different tables or passages of the source.

Key:
[1] = for Average Cell Number (1 uM) / Cell Number (1 uM) / Normalized Cell Number (1 uM): compound at 1 uM; for Average Cell Number (1 uM) / Average Cell Number (5 uM): average of normalized cell number, n=3, relative to DMSO; for Cell Number (1 uM) / Normalized Cell Number (1 uM) / Cell Number (5 uM) / Normalized Cell Number (5 uM): single replicate; for Cell Number (1 uM) / Cell Number (5 uM): raw cell count; for Normalized Cell Number (1 uM) / Normalized Cell Number (5 uM): relative to negative control DMSO; for Average Cell Number (5 uM) / Cell Number (5 uM) / Normalized Cell Number (5 uM): compound at 5 uM
SARS-CoV-2 = assay: microbe, parasite or virus in culture; type: cell-based; details: for activity at 1 µM: Severe acute respiratory syndrome coronavirus 2, 1 uM, read-out: Normalized Infection (1 uM); for HIT: overall, 1 or 5 uM; for activity at 5 µM: Severe acute respiratory syndrome coronavirus 2, 5 uM, read-out: Normalized Infection (5 uM)
[2] = single replicate, relative to negative control DMSO
[3] = 1 uM, average log2FC infection (n=3) relative to DMSO
[4] = 5 uM, average log2FC infection (n=3) relative to DMSO
[5] = 1 uM, single replicate, relative to negative control DMSO
[6] = 5 uM, single replicate, relative to negative control DMSO

Row | Compound | Toxic (1 uM) [1] | Toxic (5 uM) [1] | Average Cell Number (1 uM) [1] | Cell Number (1 uM) [1] | Normalized Cell Number (1 uM) [1] | Average Cell Number (5 uM) [1] | Cell Number (5 uM) [1] | Normalized Cell Number (5 uM) [1] | HIT (2 Std, 1 uM) (SARS-CoV-2; 1 uM) | activity at 1 µM (SARS-CoV-2; [2]) [%] | HIT (SARS-CoV-2) | Average Infection (1 uM) (SARS-CoV-2; [3]) | Average Infection (5 uM) (SARS-CoV-2; [4]) | activity at 5 µM (SARS-CoV-2; [2]) [%] | HIT (2 Stdv, 5 uM) (SARS-CoV-2; 5 uM) | other results
1 | O=C(O)CNC(=O)C1C(=O)N(C2CCCCC2)C(=O)N(C2CCCCC2)C1=O [Daprodustat, daprodustat] | 0 (non-toxic (Normalized Cell number>0.65) | 0 (non-toxic (Normalized Cell number>0.65) | 0.7431 | 4292 and 4412 and 4360 | 0.7324 and 0.7529 and 0.744 | 0.9695 | 5964 and 5671 and 5601 | 1.006 and 0.9569 and 0.9451 | HIT | 57.7 | Yes |  |  |  |  | Average Infection (1 uM) (SARS-CoV-2): −0.8526; Average Infection (5 uM) (SARS-CoV-2): −0.09093
2 | C#C[C@]1(O)CC[C@H]2[C@@H]3CCC4=CCCC[C@@H]4[C@H]3C(=C)C[C@@]21CC [Desogestrel, desogestrel] | 0 (non-toxic (Normalized Cell number>0.65) | 0 (non-toxic (Normalized Cell number>0.65) | 0.8768 | 5131 and 5212 and 5072 | 0.8756 and 0.8894 and 0.8655 | 0.9255 | 5708 and 5824 and 4922 | 0.9632 and 0.9828 and 0.8305 | HIT | 80.9 | Yes | −0.4489 | −0.1002 | 87 |  | 
3 | C#C[C@]1(O)CC[C@H]2[C@@H]3CCC4=CC(=O)CC[C@@H]4[C@H]3C(=C)C[C@@]21CC [Etonogestrel, etonogestrel] | 0 (non-toxic (Normalized Cell number>0.65) |  | 0.734 | 4255 and 4398 and 4251 | 0.7261 and 0.7505 and 0.7254 | 0.5829 |  |  | HIT | 72 | Yes | −0.4065 | −1.187 |  | HIT | 
4 | CS(=O)(=O)N1CCN(Cc2cc3nc(-c4cccc5[nH]ncc45)nc(N4CCOCC4)c3s2)CC1 [GDC-0941, pictilisib] | 0 (non-toxic (Normalized Cell number>0.65) | 0 (non-toxic (Normalized Cell number>0.65) | 0.7899 | 4447 and 4698 and 4741 | 0.7589 and 0.8017 and 0.809 | 0.8826 | 5415 and 4385 and 5891 | 0.9137 and 0.7399 and 0.9941 | HIT | 14.6 | Yes | −2.374 | −2.82 |  | HIT | 
5 | CC(C)N1CCN(Cc2cnc(-c3cc(-c4cccc5[nH]ccc45)cc4[nH]ncc34)o2)CC1 [GSK2269557, nemiralisib] | 0 (non-toxic (Normalized Cell number>0.65) | 0 (non-toxic (Normalized Cell number>0.65) | 0.8919 | 4831 and 5665 and 5184 | 0.8244 and 0.9667 and 0.8846 | 0.7914 | 4568 and 3831 and 5671 | 0.7708 and 0.6465 and 0.9569 | HIT |  | Yes |  |  |  | HIT | Average Infection (1 uM) (SARS-CoV-2): −0.7144; Average Infection (5 uM) (SARS-CoV-2): −3.347; % Infection (1 uM) (SARS-CoV-2; 1 uM, single replicate of triplicate): 17.26% and 15.32% and 15.51%; Normalized Infection (1 uM) (SARS-CoV-2; [5]): 0.6572 and 0.5833 and 0.5904; log2FC Infection (1 uM) (SARS-CoV-2; [5]): −0.6055 and −0.7776 and −0.7601; % Infection (5 uM) (SARS-CoV-2; 5 uM, single replicate of triplicate): 1.292% and 0.4698% and 5.713%; Normalized Infection (5 uM) (SARS-CoV-2; [6]): 0.08388 and 0.03051 and 0.371; log2FC Infection (5 uM) (SARS-CoV-2; [6]): −3.575 and −5.034 and −1.43
6 | CCCCN(CCCC)CCC(O)c1cc2c(Cl)cc(Cl)cc2c2cc(C(F)(F)F)ccc12 (stereo not drawn) [Halofantrine lot −4, halofantrine] | 0 (non-toxic (Normalized Cell number>0.65) | 0 (non-toxic (Normalized Cell number>0.65) | 0.8035 | 4727 and 4541 and 4857 | 0.8067 and 0.7749 and 0.8288 | 0.6652 |  |  | HIT | 48.6 | Yes | −1.202 | −1.864 | 23.4 | HIT | 
7 | CCCCN(CCCC)CCC(O)c1cc2c(Cl)cc(Cl)cc2c2cc(C(F)(F)F)ccc12 (stereo not drawn) [Halofantrine lot −5, halofantrine] | 0 (non-toxic (Normalized Cell number>0.65) | 0 (non-toxic (Normalized Cell number>0.65) | 0.6582 | 3755 and 3889 and 3927 | 0.6408 and 0.6637 and 0.6701 | 0.8653 | 5286 and 5054 and 5044 | 0.892 and 0.8528 and 0.8511 | HIT |  | Yes | −1.062 | −1.947 |  | HIT | 
8 | CC(C)(C)c1cc(C(C)(C)C)c(NC(=O)c2c[nH]c3ccccc3c2=O)cc1O [Ivacaftor, ivacaftor] |  | 0 (non-toxic (Normalized Cell number>0.65) | 0.6354 | 3730 and 3662 and 3779 | 0.6365 and 0.6249 and 0.6449 | 0.735 | 4520 and 4563 and 3984 | 0.7627 and 0.77 and 0.6723 | HIT | 59.8 | Yes |  |  | 60.9 | HIT | Average Infection (1 uM) (SARS-CoV-2): −0.9235; Average Infection (5 uM) (SARS-CoV-2): −0.9409
9 | CC1(N)CCN(c2cccnc2NC(=O)c2nc(-c3ncccc3C(F)(F)F)cnc2N)CC1 [LXS-196, lxs196] | 0 (non-toxic (Normalized Cell number>0.65) |  | 0.9125 | 5737 and 5507 and 4798 | 0.979 and 0.9398 and 0.8188 | 0.5379 |  |  | HIT | 31 | Yes | −2.123 | −6.497 |  | HIT | 
10 | CC1(C)Cc2c(-c3ccccc3)c(-c3ccc(Cl)cc3)c(CC(=O)O)n2C1 [Licofelone, licofelone] |  | 0 (non-toxic (Normalized Cell number>0.65) | 0.6254 | 3716 and 3591 and 3687 | 0.6341 and 0.6128 and 0.6292 | 0.8061 | 4830 and 4798 and 4704 | 0.815 and 0.8096 and 0.7938 | HIT | 59.1 | Yes | −0.7411 | −0.555 |  | HIT | 
11 | O=C(O)CC[C@H]1CC[C@@](c2cc(F)ccc2F)(S(=O)(=O)c2ccc(Cl)cc2)CC1 [MK-0752, mk-0752] | 0 (non-toxic (Normalized Cell number>0.65) | 0 (non-toxic (Normalized Cell number>0.65) | 0.6912 | 3905 and 4070 and 4177 | 0.6664 and 0.6945 and 0.7128 | 0.8746 | 5100 and 5130 and 5319 | 0.8606 and 0.8656 and 0.8975 | HIT | 70.8 | Yes | −0.4386 | −0.353 |  |  | 
12 | O=C(O)Cn1nnc(-c2cc(N3CCC(Oc4cc(F)ccc4Br)CC3)no2)n1 [MK-8245, mk-8245] | 0 (non-toxic (Normalized Cell number>0.65) | 0 (non-toxic (Normalized Cell number>0.65) | 0.7263 |  |  | 0.9401 | 5812 and 4892 and 6009 | 0.9807 and 0.8255 and 1.014 | HIT |  | Yes | 0.7764 | −0.05739 |  |  | 
13 | CC1(C)S[C@@H]2[C@H](/N=C/N3CCCCCC3)C(=O)N2[C@H]1C(=O)O [Mecillinam, mecillinam] | 0 (non-toxic (Normalized Cell number>0.65) | 0 (non-toxic (Normalized Cell number>0.65) | 1.097 | 6136 and 6699 and 6450 | 1.047 and 1.143 and 1.101 | 0.9928 | 6088 and 5755 and 5808 | 1.027 and 0.9711 and 0.9801 | HIT |  | Yes | −3.47 | −0.06608 | 104 |  | 
